Values joined by “and” are separate entries in the source; they are usually repeats but may differ in a detail not shown here. Equal entries are not always repeated. Inconclusive results and toxic doses are left out.
System: L1210 leukemia ip in BDF1 mice, survival T/C
Experiment: NCI In Vivo Anticancer Drug Screen. Data for tumor model L1210 Leukemia (intraperitoneal) in B6D2F1 (BDF1) mice
Settings: endpoint: mean survival time, higher = longer survival
In short: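 Transplantable tumor model; survival measured in treated vs vehicle control mice. Value = treated/control.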

[1] = dose: 100.0 mg/kg/injection, schedule: Q01DX001 (ip), vehicle: Klucel (hydroxypropylcellulose) (HPC)
[2] = dose: 100.0 mg/kg/injection, schedule: Q04DX003 (ip), vehicle: Klucel (hydroxypropylcellulose) (HPC)
[3] = dose: 200.0 mg/kg/injection, schedule: Q04DX003 (ip), vehicle: Klucel (hydroxypropylcellulose) (HPC)
[4] = dose: 400.0 mg/kg/injection, schedule: Q01DX001 (ip), vehicle: Klucel (hydroxypropylcellulose) (HPC)
[5] = dose: 400.0 mg/kg/injection, schedule: Q04DX003 (ip), vehicle: Klucel (hydroxypropylcellulose) (HPC)
[6] = dose: 50.0 mg/kg/injection, schedule: Q01DX009 (ip), vehicle: saline with Tween-80
[7] = dose: 100.0 mg/kg/injection, schedule: Q01DX009 (ip), vehicle: saline with Tween-80
[8] = dose: 200.0 mg/kg/injection, schedule: Q01DX009 (ip), vehicle: saline with Tween-80
[9] = dose: 100.0 mg/kg/injection, schedule: Q04DX003 (ip), vehicle: other
[10] = dose: 200.0 mg/kg/injection, schedule: Q04DX003 (ip), vehicle: other
[11] = dose: 400.0 mg/kg/injection, schedule: Q04DX003 (ip), vehicle: other

SMILES: NC(=O)c1[nH]cnc1/N=N/N(CCCl)Cc1ccccc1
- T/C [1]: 111 % of control
- T/C (dose: 100.0 mg/kg/injection, schedule: Q01DX009 (ip), vehicle: Klucel (hydroxypropylcellulose) (HPC)): 255 % of control
- T/C [2]: 123 % of control
- T/C (dose: 133.0 mg/kg/injection, schedule: Q01DX001 (ip), vehicle: Klucel (hydroxypropylcellulose) (HPC)): 120 % of control
- T/C (dose: 200.0 mg/kg/injection, schedule: Q01DX009 (ip), vehicle: Klucel (hydroxypropylcellulose) (HPC)): 164 % of control
- T/C [3]: 221 % of control
- T/C [4]: 174 % of control and 195 % of control
- T/C (dose: 400.0 mg/kg/injection, schedule: Q01DX009 (ip), vehicle: Klucel (hydroxypropylcellulose) (HPC)): 117 % of control
- T/C [5]: 296 % of control

SMILES: Cc1cc(NC(=O)Nc2ccc(Cl)cc2Cl)no1
- T/C (dose: 12.5 mg/kg/injection, schedule: Q01DX009 (ip), vehicle: saline with Tween-80): 95 % of control
- T/C (dose: 25.0 mg/kg/injection, schedule: Q01DX009 (ip), vehicle: saline with Tween-80): 91 % of control
- T/C [6]: 91 % of control and 92 % of control
- T/C [7]: 95 % of control
- T/C [8]: 95 % of control

SMILES: Cc1ccc(S(=O)(=O)O)cc1
- T/C (dose: 12.5 mg/kg/injection, schedule: Q01DX009 (ip), vehicle: saline): 101 % of control
- T/C (dose: 25.0 mg/kg/injection, schedule: Q01DX009 (ip), vehicle: saline): 98 % of control
- T/C (dose: 50.0 mg/kg/injection, schedule: Q01DX009 (ip), vehicle: saline): 98 % of control
- T/C (dose: 100.0 mg/kg/injection, schedule: Q01DX009 (ip), vehicle: saline): 97 % of control
- T/C (dose: 100.0 mg/kg/injection, schedule: Q04DX002 (ip), vehicle: saline): 97 % of control
- T/C (dose: 100.0 mg/kg/injection, schedule: Q04DX003 (ip), vehicle: saline): 102 % of control
- T/C (dose: 200.0 mg/kg/injection, schedule: Q01DX009 (ip), vehicle: saline): 96 % of control
- T/C (dose: 200.0 mg/kg/injection, schedule: Q04DX002 (ip), vehicle: saline): 101 % of control
- T/C (dose: 400.0 mg/kg/injection, schedule: Q04DX002 (ip), vehicle: saline): 108 % of control

SMILES: C1CNCCNCCCNCCNC1
- T/C (dose: 12.5 mg/kg/injection, schedule: Q04DX002 (ip), vehicle: saline with Tween-80): 93 % of control
- T/C (dose: 25.0 mg/kg/injection, schedule: Q04DX002 (ip), vehicle: saline with Tween-80): 101 % of control
- T/C (dose: 50.0 mg/kg/injection, schedule: Q04DX002 (ip), vehicle: saline with Tween-80): 90 % of control

SMILES: COc1ccc(COC(=O)c2cc([N+](=O)[O-])cc([N+](=O)[O-])c2)cc1
- T/C (dose: 100.0 mg/kg/injection, schedule: Q01DX001 (ip), vehicle: saline with Tween-80): 95 % of control
- T/C (dose: 200.0 mg/kg/injection, schedule: Q01DX001 (ip), vehicle: saline with Tween-80): 100 % of control
- T/C (dose: 400.0 mg/kg/injection, schedule: Q01DX001 (ip), vehicle: saline with Tween-80): 92 % of control

SMILES: CC(C)OC(=O)Nc1ccc(Br)cc1
- T/C (dose: 100.0 mg/kg/injection, schedule: Q04DX002 (ip), vehicle: Klucel (hydroxypropylcellulose) (HPC)): 88 % of control
- T/C (dose: 200.0 mg/kg/injection, schedule: Q04DX002 (ip), vehicle: Klucel (hydroxypropylcellulose) (HPC)): 95 % of control

SMILES: Cc1cc(Cl)c(Cl)cc1NC(=O)C(Br)C(Br)C(=O)O (stereo not given)
- T/C [7]: 97 % of control
- T/C [8]: 96 % of control

SMILES: CNc1ccc(OC)cc1
- T/C (dose: 100.0 mg/kg/injection, schedule: Q01DX009 (ip), vehicle: other): 95 % of control
- T/C [9]: 101 % of control
- T/C (dose: 200.0 mg/kg/injection, schedule: Q01DX009 (ip), vehicle: other): 111 % of control
- T/C [10]: 101 % of control
- T/C (dose: 400.0 mg/kg/injection, schedule: Q01DX009 (ip), vehicle: other): 124 % of control
- T/C [11]: 104 % of control

SMILES: Nc1ccn(C2OC(CO)C(OP(=O)(O)O)C2O)c(=O)n1 (stereo not given)
- T/C (dose: 40.0 mg/kg/injection, schedule: Q01DX001 (ip), vehicle: water): 102 % of control
- T/C (dose: 80.0 mg/kg/injection, schedule: Q01DX001 (ip), vehicle: water): 97 % of control

SMILES: C[N+]1(C)CCC(=O)CC1
- T/C (dose: 100.0 mg/kg/injection, schedule: Q04DX003 (ip), vehicle: saline with Tween-80): 98 % of control
- T/C (dose: 200.0 mg/kg/injection, schedule: Q04DX003 (ip), vehicle: saline with Tween-80): 98 % of control
- T/C (dose: 400.0 mg/kg/injection, schedule: Q04DX003 (ip), vehicle: saline with Tween-80): 95 % of control

SMILES: CCCCCCCCCCCCCCCCCC[N+]1(CC)CCOCC1
- T/C (dose: 3.13 mg/kg/injection, schedule: Q04DX002 (ip), vehicle: carboxymethylcellulose (CMC)): 103 % of control and 87 % of control
- T/C (dose: 6.25 mg/kg/injection, schedule: Q01DX001 (ip), vehicle: carboxymethylcellulose (CMC)): 101 % of control
- T/C (dose: 6.25 mg/kg/injection, schedule: Q01DX009 (ip), vehicle: carboxymethylcellulose (CMC)): 93 % of control and 95 % of control
- T/C (dose: 6.25 mg/kg/injection, schedule: Q04DX002 (ip), vehicle: carboxymethylcellulose (CMC)): 100 % of control and 92 % of control
- T/C (dose: 6.25 mg/kg/injection, schedule: Q04DX003 (ip), vehicle: carboxymethylcellulose (CMC)): 98 % of control
- T/C (dose: 12.5 mg/kg/injection, schedule: Q01DX001 (ip), vehicle: carboxymethylcellulose (CMC)): 94 % of control
- T/C (dose: 12.5 mg/kg/injection, schedule: Q01DX009 (ip), vehicle: carboxymethylcellulose (CMC)): 93 % of control and 89 % of control
- T/C (dose: 12.5 mg/kg/injection, schedule: Q04DX003 (ip), vehicle: carboxymethylcellulose (CMC)): 100 % of control
- T/C (dose: 25.0 mg/kg/injection, schedule: Q01DX001 (ip), vehicle: carboxymethylcellulose (CMC)): 90 % of control
- T/C (dose: 25.0 mg/kg/injection, schedule: Q04DX002 (ip), vehicle: carboxymethylcellulose (CMC)): 94 % of control and 92 % of control
- T/C (dose: 25.0 mg/kg/injection, schedule: Q04DX003 (ip), vehicle: carboxymethylcellulose (CMC)): 89 % of control

SMILES: CC1(C)C=CN2C(=O)C3=CCCN3C(=O)C2CC12Nc1ccccc1C2=O (stereo not given)
- T/C [9]: 111 % of control
- T/C [10]: 103 % of control
- T/C [11]: 93 % of control

SMILES: CCNC1CCCCC1
- T/C [6]: 104 % of control
- T/C [7]: 107 % of control

SMILES: O=S(=O)(NC/C=C/c1ccccc1)c1ccccc1
- T/C [1]: 96 % of control
- T/C (dose: 200.0 mg/kg/injection, schedule: Q01DX001 (ip), vehicle: Klucel (hydroxypropylcellulose) (HPC)): 103 % of control
- T/C [4]: 102 % of control

SMILES: CCNC1=C(N2CC2)C(=O)C(NCC)=C(N2CC2)C1=O
- T/C (dose: 0.04 mg/kg/injection, schedule: Q01DX009 (ip), vehicle: saline): 95 % of control and 102 % of control
- T/C (dose: 0.09 mg/kg/injection, schedule: Q01DX009 (ip), vehicle: saline): 102 % of control and 111 % of control
- T/C (dose: 0.09 mg/kg/injection, schedule: Q04DX003 (ip), vehicle: saline): 100 % of control and 122 % of control
- T/C (dose: 0.18 mg/kg/injection, schedule: Q01DX009 (ip), vehicle: saline): 108 % of control and 120 % of control
- T/C (dose: 0.18 mg/kg/injection, schedule: Q04DX003 (ip), vehicle: saline): 104 % of control and 113 % of control
- T/C (dose: 0.37 mg/kg/injection, schedule: Q01DX009 (ip), vehicle: saline): 168 % of control
- T/C (dose: 0.37 mg/kg/injection, schedule: Q04DX003 (ip), vehicle: saline): 113 % of control and 114 % of control
- T/C (dose: 0.75 mg/kg/injection, schedule: Q01DX001 (ip), vehicle: saline): 120 % of control
- T/C (dose: 0.75 mg/kg/injection, schedule: Q01DX009 (ip), vehicle: saline): 151 % of control
- T/C (dose: 0.75 mg/kg/injection, schedule: Q04DX003 (ip), vehicle: saline): 120 % of control and 124 % of control
- T/C (dose: 1.5 mg/kg/injection, schedule: Q01DX001 (ip), vehicle: saline): 168 % of control
- T/C (dose: 1.5 mg/kg/injection, schedule: Q01DX009 (ip), vehicle: saline): 191 % of control and 212 % of control
- T/C (dose: 1.5 mg/kg/injection, schedule: Q04DX003 (ip), vehicle: saline): 157 % of control
- T/C (dose: 3.0 mg/kg/injection, schedule: Q01DX001 (ip), vehicle: saline): 157 % of control
- T/C (dose: 3.0 mg/kg/injection, schedule: Q01DX009 (ip), vehicle: saline): 93 % of control and 117 % of control
- T/C (dose: 3.0 mg/kg/injection, schedule: Q04DX003 (ip), vehicle: saline): 175 % of control
- T/C (dose: 3.12 mg/kg/injection, schedule: Q04DX003 (ip), vehicle: saline): 150 % of control
- T/C (dose: 6.0 mg/kg/injection, schedule: Q04DX003 (ip), vehicle: saline): 101 % of control
- T/C (dose: 6.25 mg/kg/injection, schedule: Q04DX003 (ip), vehicle: saline): 95 % of control

SMILES: ClCCOCc1ccccc1
- T/C [2]: 102 % of control
- T/C [3]: 100 % of control
- T/C [5]: 98 % of control
